Residues, ends and D or L forms follow the SMILES beside them. *: point of attachment. X1 = O=C1CCC(N2C(=O)c3cccc(*)c3C2=O)C(=O)N1; PEG4 = NCCOCCOCCOCCOCCC(=O)O
Assays:
FoxP3 = molecular target: T1, FoxP3 (Mus musculus, UniProt Q99JB6); assay: FoxP3 positive CD4+ cells in peripheral blood and spleen of mice after PF administration; type: in vivo
T1 construct: from tissue; host or cells: peripheral blood and spleen of mice
T1 sequence (Q99JB6 1-429): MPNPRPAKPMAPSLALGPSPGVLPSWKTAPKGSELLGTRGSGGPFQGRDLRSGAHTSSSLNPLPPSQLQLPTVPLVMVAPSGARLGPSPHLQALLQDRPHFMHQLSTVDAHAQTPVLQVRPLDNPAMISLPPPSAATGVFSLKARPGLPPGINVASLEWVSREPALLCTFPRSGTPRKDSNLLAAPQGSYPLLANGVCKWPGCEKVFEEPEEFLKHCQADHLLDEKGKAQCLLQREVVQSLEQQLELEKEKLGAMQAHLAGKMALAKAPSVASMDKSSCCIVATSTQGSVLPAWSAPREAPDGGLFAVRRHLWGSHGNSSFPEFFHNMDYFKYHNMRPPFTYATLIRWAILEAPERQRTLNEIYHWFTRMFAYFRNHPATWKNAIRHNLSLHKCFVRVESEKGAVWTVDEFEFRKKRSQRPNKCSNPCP
Protocol: FIGS. 2A-2E depict that a proteolysis-targeting chimera (PROTAC) targeting FoxP3 (PF) degraded FoxP3 in vitro and in vivo. P-FoxP3 forms a ternary complex with cereblon and FoxP3. Surface plasmon resonance (SPR) assay was used to measure the equilibrium dissociation constant (KD) for the ternary complex consisting of cereblon, P-FoxP3 and FoxP3 (FIG. 2A). SPR assay was used to measure the KD for the binary complex consisting of cereblon and P-FoxP3 (FIG. 2B). Mouse splenocytes were treated in vitro with varying PF concentrations and percent of CD4+ cells staining for intracellular FoxP3 was assessed by flow cytometry. (FIG. 2C). Mice received 0.1 mmole of PF intraperitoneally (i.p.) (FIGS. 2D and 2E). 72 hours later, FoxP3 positive CD4+ cells in peripheral blood and spleen were assessed by flow cytometry (FIG. 2D). FoxP3 positive CD4+ cells in peripheral blood were assessed by flow cytometry at various timepoints following PF administration (FIG. 2E). Representative results from duplicate experiments are shown.
To assess T cells in mice, CD4+ FoxP3+ cells from serial peripheral blood draws were assessed by flow cytometry. To assess lymphocytes in mice treated with various therapies, lymph nodes and spleens were harvested to make single-cell suspensions that were activated by a CA9 peptide (AYEQLLSHL) for 4 days, and then flow cytometry was used to assess CD4, CD8, IFNγ, TNFα, CD62L CD44, and Eomes.
To determine if PF results in the degradation of FoxP3, mouse splenocytes were treated in vitro with varying concentrations of PF and percent of CD4+ cells staining for intracellular FoxP3 was assessed by flow cytometry. […] The next step was to determine if PF can decrease FoxP3 in vivo. […] 72 hours later, FoxP3 positive CD4+ cells in peripheral blood and spleen were assessed by flow cytometry. […] To understand the time course of FoxP3 decrease, serial blood draws were assessed after a single injection of PF (FIG. 2E). FoxP3 positive CD4+ cells in peripheral blood were assessed by flow cytometry at various timepoints following the PF administration. […]

Tregs = assay: Treg immunosuppression co-culture assay with human PBMC (CFSE dilution, IFNγ, TNFα); type: cell-based; conditions: human CD4+ PBMC treated 72 hours (10 μM), co-cultured with CD4− PBMC stimulated with αCD3 and αCD28; difference to P60 significant
Protocol: FIGS. 7A-7C depict that PF decreases FoxP3 and the immunosuppressive function of human CD4+ cells. Human peripheral blood mononuclear cells (PBMC) were treated in vitro with PF (10 μM) or various control drugs (10 μM) for 3 days (FIG. 7A). PMA 10 ng/ml and Ionomycin 2 μg/ml were added during PF treatment to induce FoxP3 (FIG. 7A). Resulting cells were gated on CD4 and assessed for FoxP3 expression by flow cytometry. To treat Tregs, CD4+ PBMC were isolated and treated with PF or various controls for 72 hours. […] CD8 proliferation was measured using a CFSE dilution assay. To assess CD8+ effector cells, CD4 negative splenocytes were CFSE labeled and CFSE dilution was measured in CD8+ cells by flow cytometry (FIG. 7B). In the same experiment, CD8+ cells were assessed for activation by gating on CD8 and assessing IFNγ or TNFα by flow cytometry (FIG. 7C). […]
Human peripheral blood mononuclear cells (PBMC) were treated with phorbol 12-myristate 13-acetate (PMA) (10 ng/ml) and Ionomycin (2 μg/ml) to increase FoxP3 expression. […] CD8 proliferation was measured using a CFSE dilution assay. Immune activation was assessed by measuring TNFα or IFNγ in CD8+ or CD4+ T cells using flow cytometry.
P60 was designed to bind both mouse and human FoxP3. Therefore, we evaluated PF using human peripheral blood mononuclear cells (PBMC). […] Resulting cells were gated on CD4 and assessed for FoxP3 expression by flow cytometry. […]

duration of FoxP3 decrease after a single PF dose (FoxP3; spleen and peripheral lymphocytes): at least 8 days
Structure (SMILES): CSCC[C@H](NC(=O)[C@H](C)NC(=O)[C@H](Cc1ccccc1)NC(=O)[C@H](Cc1ccccc1)NC(=O)[C@@H]1CCCN1C(=O)[C@H](Cc1c[nH]c2ccccc12)NC(=O)[C@H](CCSC)NC(=O)[C@H](CCCCN)NC(=O)[C@H](CCCNC(=N)N)NC(=O)[C@H](Cc1ccccc1)NC(=O)[C@H](CO)NC(=O)[C@H](CCC(N)=O)NC(=O)[C@H](Cc1ccccc1)NC(=O)[C@H](CC(=O)O)NC(=O)[C@H](CCCNC(=N)N)NC(=O)CCOCCOCCOCCOCCNc1cccc2c1C(=O)N(C1CCC(=O)NC1=O)C2=O)C(=O)O (some centres unmarked) [PF, Pomalidomide-PEG4-RDFQSFRKMWPFFAM] ({X1-PEG4}-RDFQSFRKMWPFFAM-OH)
FoxP3 positive CD4+ cells in peripheral blood, time course (FoxP3; serial blood draws after a single injection of PF): immediately dropped as measured on day 2, and slightly came up on day 8
FoxP3 positive CD4+ cells in peripheral blood and spleen (FoxP3; single dose 0.1 mmole i.p., 72 hours later, peripheral decrease p<0.0008): decreased 3 days later in both spleen and peripheral blood
CD8+ lymphocyte activation as measured by IFNγ or TNFα (Tregs): greatest enhancement of CD8+ lymphocyte activation
CD8+ lymphocyte proliferation (CFSE dilution) (Tregs): highest CD8+ lymphocyte proliferation

Reference: patent US20250049930A1, “PROTAC MOLECULES TARGETING FOXP3 AND USES THEREOF” (CEDARS-SINAI MEDICAL CENTER, priority 2022, published 2025)
